Results reported in patent EP4759814A1, “TRICYCLIC COMPOUND AND USE THEREOF AS MAT2A INHIBITOR” (SK Biopharmaceuticals Co., Ltd., priority 2023, dated 2025).

What was measured:
[1] = Phase 1 clinical trials; cited from earlier work
[2] = system: HCT116 (MTAP WT) cell line; test: Cell proliferation inhibition in wild-type control cells, WST-1 assay; assay type: cell-based; details: Homo sapiens, HCT-116, 120 hours of drug treatment, maximum concentration 10 µM, read-out: HCT116 WT (IC50, cell proliferation inhibited by 50%)
How it was run: (§1)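 HCT116 MTAP-deleted and isogenic MTAP wild-type cells (1,000 cells/well, 10% FBS RPMI1640) attached 24 h, then treated with 4-fold dilutions from 10 µM for 120 hours. WST-1 added 2 hours, absorbance at 450 nm, normalized to DMSO control as 100%; IC50 from 4-parameter dose-response fit.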

[3] = system: HCT116 (MTAP del) cell line; test: Cell proliferation inhibition in MTAP-deficient cancer cells, WST-1 assay; assay type: cell-based; details: Homo sapiens, HCT-116, 120 hours of drug treatment, maximum concentration 10 µM, read-out: HCT116 MTAP^-/- (IC50, cell proliferation inhibited by 50%)
How it was run: as §1

MAT2A = molecular target: T1, MAT2A (Homo sapiens, UniProt P31153); test: MAT2A inhibitory activity, colorimetric phosphate detection (PiColorLock) enzyme assay; assay type: biochemical; details: Test Condition 1 or 2 (not stated which per compound); absorbance at 630 nm
T1 construct: purchased BPS Bioscience (USA) 71401
T1 sequence (P31153 whole entry): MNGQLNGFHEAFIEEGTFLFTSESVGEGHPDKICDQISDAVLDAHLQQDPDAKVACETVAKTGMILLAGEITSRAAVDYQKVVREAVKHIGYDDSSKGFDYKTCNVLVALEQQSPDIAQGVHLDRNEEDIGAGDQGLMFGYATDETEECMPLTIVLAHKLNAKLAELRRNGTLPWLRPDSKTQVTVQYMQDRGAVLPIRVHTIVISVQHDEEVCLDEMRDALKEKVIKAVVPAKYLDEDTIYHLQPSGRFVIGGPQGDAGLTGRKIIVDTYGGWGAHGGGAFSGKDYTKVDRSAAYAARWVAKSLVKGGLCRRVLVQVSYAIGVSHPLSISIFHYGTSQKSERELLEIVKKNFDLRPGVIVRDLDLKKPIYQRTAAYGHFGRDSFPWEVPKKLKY
How it was run: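 Compound preincubated 30 min at room temperature with enzyme, then reacted 1 h with ATP and Met; phosphate read colorimetrically at 630 nm. Condition 1: top 50 µM, 12 ng/µL enzyme, 100 µM ATP, 80 µM Met. Condition 2: top 1 µM, 4 ng/µL enzyme, 300 µM ATP, 150 µM Met. Tris pH 8.0 buffer; IC50 by 4-parameter fit.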

Structure (SMILES)	hepatotoxicity [1]	IC50 [2] [nM]	IC50 [3] [nM]	IC50 (MAT2A) [nM]
COc1ccc(-c2c(Nc3ccccn3)[nH]c3c(C4=CCCCC4)c(-c4ccccc4)nn3c2=O)cc1 [AG-270]	hepatotoxicity associated with inhibition of UGT1A1			
O=c1c2nccn2c2cc(Cl)c(Br)cc2n1-c1cccnc1C1CC1 [Example 87, 7-bromo-8-chloro-5-(2-cyclopropylpyridin-3-yl)imidazo[1,2-a]quinoxalin-4(5H)-one]		> 10000	1 to 100	1 to 100
Cc1ncccc1-n1c(=O)c2ncc(Br)n2c2cc(Cl)c(Br)cc21 [Example 88, 1,7-dibromo-8-chloro-5-(2-methylpyridin-3-yl)imidazo[1,2-a]quinoxalin-4(5H)-one]		> 10000	100 to 1000	100 to 1000
Cc1ncccc1-n1c(=O)c2ncc(Cl)n2c2cc(Cl)c(Br)cc21 [Example 89, 7-bromo-1,8-dichloro-5-(2-methylpyridin-3-yl)imidazo[1,2-a]quinoxalin-4(5H)-one]		> 10000	100 to 1000	100 to 1000
Cc1cc2c(cc1Br)n(-c1cccnc1Cl)c(=O)c1nccn12 [Example 91, 7-bromo-5-(2-chloropyridin-3-yl)-8-methylimidazo[1,2-a]quinoxalin-4(5H)-one]		> 10000	1 to 100	1 to 100
Cc1ncccc1-n1c(=O)c2nc(Br)c(C)n2c2cc(Cl)c(Br)cc21 [Example 92, 2,7-dibromo-8-chloro-1-methyl-5-(2-methylpyridin-3-yl)imidazo[1,2-a]quinoxalin-4(5H)-one]		> 10000	> 10000	100 to 1000
Cc1cc2c(cc1C(F)(F)F)n(-c1cccnc1C)c(=O)c1nccn12 [Example 93, 8-methyl-5-(2-methylpyridin-3-yl)-7-(trifluoromethyl)imidazo[1,2-a]quinoxalin4(5H)-one]		> 10000	1 to 100	1 to 100
Cc1ncccc1-n1c(=O)c2nccn2c2cc(Cl)c(C(F)(F)F)cc21 [Example 96, 8-chloro-5-(2-methylpyridin-3-yl)-7-(trifluoromethyl)imidazo[1,2-a]quinoxalin4(5H)-one]		> 10000	1 to 100	1 to 100
Cc1ncccc1-n1c(=O)c2ncc(C)n2c2cc(Cl)c(C(F)(F)F)cc21 [Example 99, 8-chloro-1-methyl-5-(2-methylpyridin-3-yl)-7-(trifluoromethyl)imidazo[1,2-a]quinoxalin-4(5H)-one]		> 10000	1 to 100	1 to 100
Cc1ncccc1-n1c(=O)c2nc(N(C)C)c(C)n2c2cc(Cl)c(C(F)(F)F)cc21 [Example 100, 8-chloro-2-(dimethylamino)-1-methyl-5-(2-methylpyridin-3-yl)-7-(trifluoromethyl)imidazo[1,2-a]quinoxalin-4(5H)-one]		> 10000	100 to 1000	100 to 1000
Cc1ncccc1-n1c(=O)c2nccn2c2c(F)cc(Cl)cc21 [Example 101, 7-chloro-9-fluoro-5-(2-methylpyridin-3-yl)imidazo[1,2-a]quinoxalin-4(5H)-one]		> 10000	1 to 100	1 to 100
COc1cc(Cl)cc2c1n1ccnc1c(=O)n2-c1cccnc1C [Example 102, 7-chloro-9-methoxy-5-(2-methylpyridin-3-yl)imidazo[1,2-a]quinoxalin-4(5H)-one]		> 10000	1 to 100	1 to 100
Cc1ncccc1-n1c(=O)c2nccn2c2c(OCC3CC3)cc(Cl)cc21 [Example 103, 7-chloro-9-(cyclopropylmethoxy)-5-(2-methylpyridin-3-yl)imidazo[1,2-a]quinoxalin-4(5H)-one]		> 10000	1 to 100	1 to 100
CNc1cc(Cl)cc2c1n1ccnc1c(=O)n2-c1cccnc1C [Example 105, 7-chloro-9-(methylamino)-5-(2-methylpyridin-3-yl)imidazo[1,2-a]quinoxalin-4(5H)-one]		> 10000	1 to 100	1 to 100
COc1ncccc1-n1c(=O)c2nccn2c2cc(Cl)c(Br)cc21 [Example 107, 7-bromo-8-chloro-5-(2-methoxypyridin-3-yl)imidazo[1,2-a]quinoxalin-4(5H)-one]		> 10000	> 10000	1 to 100
O=c1c2nccn2c2cc(Cl)c(Br)cc2n1-c1cccc2ncsc12 [Example 108, 5-(benzo[d]thiazol-7-yl)-7-bromo-8-chloroimidazo[1,2-a]quinoxalin-4(5H)-one]		1000 to 10000	100 to 1000	1 to 100
O=c1c2nccn2c2cc(Cl)c(Br)cc2n1-c1cccc2[nH]ccc12 [Example 109, 7-bromo-8-chloro-5-(1H-indol-4-yl)imidazo[1,2-a]quinoxalin-4(5H)-one]		> 10000	100 to 1000	1 to 100
CCc1ncccc1-n1c(=O)c2nccn2c2cc(Cl)c(C(F)(F)F)cc21 [Example 110, 8-chloro-5-(2-ethylpyridin-3-yl)-7-(trifluoromethyl)imidazo[1,2-a]quinoxalin-4(5H)-one]		> 10000	> 10000	1 to 100
COc1cc(C(F)(F)F)cc2c1n1ccnc1c(=O)n2-c1cccnc1C [Example 113, 9-methoxy-5-(2-methylpyridin-3-yl)-7-(trifluoromethyl)imidazo[1,2-a]quinoxalin-4(5H)-one]		> 10000	1 to 100	1 to 100
